Test results published in ChEMBL document CHEMBL1806399, “Synthesis and SAR of new pyrazolo[4,3-h]quinazoline-3-carboxamide derivatives as potent and selective MPS1 kinase inhibitors” (Bioorg Med Chem Lett, 2011).
pIC50: −log10 of the molar value. ≈ marks a conversion by molar mass, not a printed value.

How the values were obtained:
[1] = biological target: T1, Dual specificity protein kinase TTK (Homo sapiens, UniProt P33981); experiment: Inhibition of MPS1 assessed as [33P]-gamma-ATP incorporation into substrate P38-betatide by gamma counting
T1 sequence (P33981 whole entry): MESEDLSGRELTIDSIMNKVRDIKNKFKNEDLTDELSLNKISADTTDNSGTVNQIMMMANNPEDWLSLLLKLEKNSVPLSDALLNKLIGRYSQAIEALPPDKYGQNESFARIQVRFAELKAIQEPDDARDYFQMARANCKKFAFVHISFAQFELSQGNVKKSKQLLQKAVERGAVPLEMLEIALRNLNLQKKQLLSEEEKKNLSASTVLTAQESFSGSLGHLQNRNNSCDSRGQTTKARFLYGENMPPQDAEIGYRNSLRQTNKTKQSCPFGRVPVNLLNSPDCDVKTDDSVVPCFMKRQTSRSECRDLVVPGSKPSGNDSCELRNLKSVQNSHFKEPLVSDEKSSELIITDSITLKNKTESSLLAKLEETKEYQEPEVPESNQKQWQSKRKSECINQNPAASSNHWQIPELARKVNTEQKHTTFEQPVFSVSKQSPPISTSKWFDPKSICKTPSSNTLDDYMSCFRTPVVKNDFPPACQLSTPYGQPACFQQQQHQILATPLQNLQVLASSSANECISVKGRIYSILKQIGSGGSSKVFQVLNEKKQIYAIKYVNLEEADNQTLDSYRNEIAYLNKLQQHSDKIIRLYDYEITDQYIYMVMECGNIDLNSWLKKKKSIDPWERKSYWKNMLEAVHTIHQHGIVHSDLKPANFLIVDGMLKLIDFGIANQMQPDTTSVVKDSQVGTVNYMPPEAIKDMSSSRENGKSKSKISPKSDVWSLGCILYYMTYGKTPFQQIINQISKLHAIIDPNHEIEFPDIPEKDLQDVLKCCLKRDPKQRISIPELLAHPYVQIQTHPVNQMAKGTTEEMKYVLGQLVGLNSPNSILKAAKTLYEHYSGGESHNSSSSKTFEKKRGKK

Aurora kinase A = biological target: T2, Aurora kinase A (Homo sapiens, UniProt O14965); experiment: Inhibition of Aur-A assessed as [33P]-gamma-ATP incorporation into substrate by gamma counting
T2 sequence (O14965 whole entry): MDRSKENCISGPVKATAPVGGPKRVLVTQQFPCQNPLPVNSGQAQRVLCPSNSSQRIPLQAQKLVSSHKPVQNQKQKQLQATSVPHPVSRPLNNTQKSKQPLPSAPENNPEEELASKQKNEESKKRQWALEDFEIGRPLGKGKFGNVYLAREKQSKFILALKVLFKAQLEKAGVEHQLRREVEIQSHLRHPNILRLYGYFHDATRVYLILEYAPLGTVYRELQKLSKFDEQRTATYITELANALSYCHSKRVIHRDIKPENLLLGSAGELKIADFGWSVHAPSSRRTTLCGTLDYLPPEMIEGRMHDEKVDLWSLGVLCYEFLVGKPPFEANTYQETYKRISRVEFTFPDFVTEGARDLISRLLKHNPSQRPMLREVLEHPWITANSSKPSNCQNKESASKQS

[2] = biological target: Cyclin-dependent kinase 2/cyclin A (Homo sapiens, UniProt P24941); experiment: Inhibition of CDK2/Cyclin A assessed as [33P]-gamma-ATP incorporation into substrate by gamma counting; type: protein-complex assay
[3] = Solubility of the compound at pH 7; type: physicochemical; settings: buffer
A2780 = experiment: Antiproliferative activity in human A2780 cells after 72 hrs by CellTiter-Glo assay; type: functional, cell-based; settings: A2780, 72 h
U2OS = experiment: Inhibition of mitosis in human U2OS cells assessed as histone H3 phosphorylation at Ser 10 residue after 2 hrs by immunoassay; type: functional, cell-based
[4] = biological target: Serine/threonine-protein kinase PLK1 (Homo sapiens, UniProt P53350); experiment: Inhibition of PLK1 assessed as [33P]-gamma-ATP incorporation into substrate by gamma counting
[5] = Cmax in mouse at 10 mg/kg, po; type: ADME, organism-based; design: dose 10 mg/kg, route oral; settings: in vivo
[6] = Half life in mouse at 10 mg/kg, iv; type: ADME, organism-based; design: dose 10 mg/kg, route intravenous; settings: in vivo
[7] = Clearance in mouse at 10 mg/kg, iv; type: ADME, organism-based; design: dose 10 mg/kg, route intravenous; settings: in vivo
[8] = Volume of distribution at steady state in mouse at 10 mg/kg, iv; type: ADME, organism-based; design: dose 10 mg/kg, route intravenous; settings: in vivo, read-out: Vdss
[9] = Oral bioavailability in mouse at 10 mg/kg; type: ADME, organism-based; settings: in vivo
[10] = AUC in mouse at 10 mg/kg, iv; type: ADME, organism-based; design: dose 10 mg/kg, route intravenous; settings: plasma
[11] = Half life in mouse at 10 mg/kg, po; type: ADME, organism-based; design: dose 10 mg/kg, route oral; settings: in vivo
[12] = AUC in mouse at 10 mg/kg, po; type: ADME, organism-based; design: dose 10 mg/kg, route oral; settings: plasma

Serine/threonine-protein kinase PLK1, sequence (P53350 whole entry): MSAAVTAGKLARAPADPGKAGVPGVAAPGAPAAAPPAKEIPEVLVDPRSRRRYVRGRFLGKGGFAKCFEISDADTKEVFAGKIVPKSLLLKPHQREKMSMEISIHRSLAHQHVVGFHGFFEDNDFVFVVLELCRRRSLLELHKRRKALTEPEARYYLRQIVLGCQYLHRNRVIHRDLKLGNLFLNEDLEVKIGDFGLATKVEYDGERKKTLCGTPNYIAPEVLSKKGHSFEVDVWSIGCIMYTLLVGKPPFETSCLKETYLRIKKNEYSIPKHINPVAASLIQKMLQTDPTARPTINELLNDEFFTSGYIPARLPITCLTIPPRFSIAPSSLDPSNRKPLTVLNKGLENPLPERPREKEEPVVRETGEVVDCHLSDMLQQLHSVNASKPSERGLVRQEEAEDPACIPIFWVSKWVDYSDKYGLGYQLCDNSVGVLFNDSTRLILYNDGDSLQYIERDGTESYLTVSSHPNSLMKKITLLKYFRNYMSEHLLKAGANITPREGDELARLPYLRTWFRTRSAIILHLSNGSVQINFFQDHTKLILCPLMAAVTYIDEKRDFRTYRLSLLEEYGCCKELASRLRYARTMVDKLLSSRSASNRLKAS

Row | pIC50 [1] | pIC50 (Aurora kinase A) | pIC50 [2] | solubility [3] | pIC50 (A2780) | pIC50 (U2OS) | pIC50 [4] | Cmax [5] | half-life [6] | clearance [7] | Vd [8] | bioavailability [9] | AUC [10] | half-life [11] | AUC [12] | Structure (SMILES)
1 | 7.18 |  |  |  |  |  |  |  |  |  |  |  |  |  |  | COc1ccccc1Nc1ncc2c(n1)-c1c(c(C(N)=O)nn1C)CC2
2 | 6.62 |  |  |  |  |  |  |  |  |  |  |  |  |  |  | Cc1ccccc1Nc1ncc2c(n1)-c1c(c(C(N)=O)nn1C)CC2
3 | 5.91 | < 5.00 | < 5.00 |  |  |  |  |  |  |  |  |  |  |  |  | Cn1nc(C(N)=O)c2c1-c1nc(Nc3ccccc3OC(F)(F)F)ncc1CC2
4 | 6.41 | < 5.00 | < 5.00 | 65 µM (≈ 46.6 µg/mL) | 6.37 | 6.68 | < 5.00 |  |  |  |  |  |  |  |  | CCc1cccc(CC)c1NC(=O)c1nn(C)c2c1CCc1cnc(Nc3ccc(C(=O)N4CCC[C@@H]4CN4CCCC4)cc3OC(F)(F)F)nc1-2
5 | 7.14 | 6.31 | < 5.00 | 96 µM (≈ 63.6 µg/mL) | 7.14 | 7.89 | < 5.00 |  |  |  |  |  |  |  |  | CCc1cccc(CC)c1NC(=O)c1nn(C)c2c1CCc1cnc(Nc3ccc(C(=O)N4CCC[C@H]4CN4CCCC4)cc3OC)nc1-2
6 | 6.69 | < 5.00 | < 5.00 | 69 µM (≈ 49.5 µg/mL) | 6.39 | 6.59 | < 5.00 |  |  |  |  |  |  |  |  | CCc1cccc(CC)c1NC(=O)c1nn(C)c2c1CCc1cnc(Nc3ccc(C(=O)N4CCC[C@H]4CN4CCCC4)cc3OC(F)(F)F)nc1-2
7 | 7.72 | 6.32 | < 5.00 | 116 µM (≈ 73.9 µg/mL) | 7.08 | 8.70 | < 5.00 |  |  |  |  |  |  |  |  | CCc1cccc(CC)c1NC(=O)c1nn(C)c2c1CCc1cnc(Nc3ccc(C(=O)N4CCC(N(C)C)CC4)cc3OC)nc1-2
8 | 6.69 | < 5.00 | < 5.00 | 70 µM (≈ 48.4 µg/mL) | 6.31 | 7.40 | < 5.00 |  |  |  |  |  |  |  |  | CCc1cccc(CC)c1NC(=O)c1nn(C)c2c1CCc1cnc(Nc3ccc(C(=O)N4CCC(N(C)C)CC4)cc3OC(F)(F)F)nc1-2
9 | 7.68 | 6.43 | 5.44 | 59 µM (≈ 36.7 µg/mL) | > 7.80 | 8.70 | < 5.00 |  |  |  |  |  |  |  |  | CCc1cccc(CC)c1NC(=O)c1nn(C)c2c1CCc1cnc(Nc3ccc(C(=O)N4CCCN(C)CC4)cc3OC)nc1-2
10 | 6.84 | < 5.00 | < 5.00 | 46 µM (≈ 31.1 µg/mL) | 6.61 | 7.49 | < 5.00 | 245 nM | 1.61 h | 77.5 mL/min/kg | 8.41 L/kg | 22.4% | 2.9 µM·h | 2.92 h | 0.64 µM·h | CCc1cccc(CC)c1NC(=O)c1nn(C)c2c1CCc1cnc(Nc3ccc(C(=O)N4CCCN(C)CC4)cc3OC(F)(F)F)nc1-2
11 | 6.28 | 6.82 | < 5.00 |  |  |  | < 5.00 |  |  |  |  |  |  |  |  | CCc1cccc(CC)c1NC(=O)c1nn(C)c2c1CCc1cnc(Nc3ccccc3)nc1-2
12 | < 4.92 | 6.17 | 6.16 |  |  |  | < 5.00 |  |  |  |  |  |  |  |  | Cn1nc(C(=O)NCCc2ccccc2)c2c1-c1nc(Nc3ccccc3)ncc1CC2
13 | 6.28 | 5.50 | < 5.00 | < 1 µM | 6.27 |  | < 5.00 |  |  |  |  |  |  |  |  | CCc1cccc(CC)c1NC(=O)c1nn(C)c2c1CCc1cnc(Nc3ccccc3OC)nc1-2
14 | 6.08 | < 5.00 | < 5.00 | < 1 µM | 5.54 |  | < 5.00 |  |  |  |  |  |  |  |  | CCc1cccc(CC)c1NC(=O)c1nn(C)c2c1CCc1cnc(Nc3ccccc3OC(F)(F)F)nc1-2
15 | 7.44 | 6.11 | 5.25 | < 1 µM | 6.87 | 8.40 | 5.52 |  |  |  |  |  |  |  |  | CCc1cccc(CC)c1NC(=O)c1nn(C)c2c1CCc1cnc(Nc3ccc(C(N)=O)cc3OC)nc1-2
16 | 6.85 | < 5.00 | < 5.00 | 1 µM (≈ 0.58 µg/mL) | 6.53 | 6.80 | < 5.00 |  |  |  |  |  |  |  |  | CCc1cccc(CC)c1NC(=O)c1nn(C)c2c1CCc1cnc(Nc3ccc(C(N)=O)cc3OC(F)(F)F)nc1-2
17 | 7.08 | 5.84 | < 5.00 | 3 µM (≈ 1.87 µg/mL) | 6.82 | 7.80 | 6.63 |  |  |  |  |  |  |  |  | CCc1cccc(CC)c1NC(=O)c1nn(C)c2c1CCc1cnc(Nc3ccc(C(=O)NC4CCN(C)CC4)cc3OC)nc1-2
18 | 7.48 | 6.12 | < 5.00 | 44 µM (≈ 26.3 µg/mL) | 7.00 | 7.92 | 5.78 |  |  |  |  |  |  |  |  | CCc1cccc(CC)c1NC(=O)c1nn(C)c2c1CCc1cnc(Nc3ccc(C(=O)NCCN(C)C)cc3OC)nc1-2
19 | 6.89 | 5.86 | < 5.00 | 27 µM (≈ 17.6 µg/mL) | 6.11 | 6.96 | < 5.00 |  |  |  |  |  |  |  |  | CCc1cccc(CC)c1NC(=O)c1nn(C)c2c1CCc1cnc(Nc3ccc(C(=O)NCCN(C)C)cc3OC(F)(F)F)nc1-2
20 | 6.99 | 5.86 | < 5.00 | 110 µM (≈ 72.9 µg/mL) | 7.08 | 7.96 | < 5.00 |  |  |  |  |  |  |  |  | CCc1cccc(CC)c1NC(=O)c1nn(C)c2c1CCc1cnc(Nc3ccc(C(=O)N4CCC[C@@H]4CN4CCCC4)cc3OC)nc1-2
21 | < 4.96 |  |  |  |  |  | < 5.00 |  |  |  |  |  |  |  |  | Cn1nc(C(=O)NCc2ccccc2)c2c1-c1nc(Nc3ccccc3)ncc1CC2
22 | 5.66 |  |  |  |  |  |  |  |  |  |  |  |  |  |  | CNC(=O)c1nn(C)c2c1CCc1cnc(Nc3ccccc3)nc1-2
